From paper PMC8566257 (Plant Physiology, 2021)

Experiments:
Assay in all cases: pull-down of COI1-flag on MBP-JAZ, immunoblot
Format in all cases: binding
Conditions in all cases: 0.5 μM COR; inducer of complex (agonist)
[1] = target: T1, AtCOI1-flag/AtJAZ2-MBP with ASK1 (Arabidopsis thaliana, UniProt O04197+Q9S7M2)
T1 sequence (O04197 1-592): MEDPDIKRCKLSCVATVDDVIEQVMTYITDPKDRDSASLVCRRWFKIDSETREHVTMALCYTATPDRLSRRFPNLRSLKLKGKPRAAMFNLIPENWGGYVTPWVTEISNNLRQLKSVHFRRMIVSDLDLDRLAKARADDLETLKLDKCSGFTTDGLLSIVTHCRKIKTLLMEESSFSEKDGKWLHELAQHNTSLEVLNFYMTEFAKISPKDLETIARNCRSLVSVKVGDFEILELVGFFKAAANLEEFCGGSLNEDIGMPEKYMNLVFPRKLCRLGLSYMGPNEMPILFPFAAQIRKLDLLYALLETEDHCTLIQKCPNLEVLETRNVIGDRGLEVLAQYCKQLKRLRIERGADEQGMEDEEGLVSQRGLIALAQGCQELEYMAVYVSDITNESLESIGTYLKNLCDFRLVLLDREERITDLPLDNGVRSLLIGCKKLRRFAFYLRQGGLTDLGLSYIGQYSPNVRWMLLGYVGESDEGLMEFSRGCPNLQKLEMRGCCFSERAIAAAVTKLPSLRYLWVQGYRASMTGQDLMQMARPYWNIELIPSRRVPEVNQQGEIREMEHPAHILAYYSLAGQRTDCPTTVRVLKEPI
T1 sequence (Q9S7M2 1-249): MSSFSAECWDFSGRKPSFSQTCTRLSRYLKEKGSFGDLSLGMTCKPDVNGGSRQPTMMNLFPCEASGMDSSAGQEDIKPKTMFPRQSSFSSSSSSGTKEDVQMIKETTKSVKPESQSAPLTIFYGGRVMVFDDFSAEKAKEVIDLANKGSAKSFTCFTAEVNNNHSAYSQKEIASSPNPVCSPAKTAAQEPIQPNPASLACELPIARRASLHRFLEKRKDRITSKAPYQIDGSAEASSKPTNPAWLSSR
T1 sequence (Q39255 1-160 partner): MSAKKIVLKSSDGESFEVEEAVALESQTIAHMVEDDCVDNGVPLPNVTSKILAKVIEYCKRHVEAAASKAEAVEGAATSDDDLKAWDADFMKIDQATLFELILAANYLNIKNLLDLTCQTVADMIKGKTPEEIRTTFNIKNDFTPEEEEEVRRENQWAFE

[2] = target: T2, AtCOI1-flag/AtJAZ1-MBP with ASK1 (Arabidopsis thaliana, UniProt O04197+Q9LMA8)
T2 sequence (O04197 1-592): T1 sequence (O04197 1-592)
T2 sequence (Q9LMA8 1-253): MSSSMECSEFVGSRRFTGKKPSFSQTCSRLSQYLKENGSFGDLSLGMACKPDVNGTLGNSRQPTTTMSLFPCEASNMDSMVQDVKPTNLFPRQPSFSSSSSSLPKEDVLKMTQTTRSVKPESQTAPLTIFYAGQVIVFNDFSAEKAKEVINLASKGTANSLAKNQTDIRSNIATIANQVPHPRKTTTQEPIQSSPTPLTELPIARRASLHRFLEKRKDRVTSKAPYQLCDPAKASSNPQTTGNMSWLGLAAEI
T2 sequence (Q39255 1-160 partner): T1 sequence (Q39255 1-160 partner)

[3] = target: T3, AtCOI1-flag/AtJAZ3-MBP with ASK1 (Arabidopsis thaliana, UniProt O04197+Q9LVI4)
T3 sequence (O04197 1-592): T1 sequence (O04197 1-592)
T3 sequence (Q9LVI4 1-352): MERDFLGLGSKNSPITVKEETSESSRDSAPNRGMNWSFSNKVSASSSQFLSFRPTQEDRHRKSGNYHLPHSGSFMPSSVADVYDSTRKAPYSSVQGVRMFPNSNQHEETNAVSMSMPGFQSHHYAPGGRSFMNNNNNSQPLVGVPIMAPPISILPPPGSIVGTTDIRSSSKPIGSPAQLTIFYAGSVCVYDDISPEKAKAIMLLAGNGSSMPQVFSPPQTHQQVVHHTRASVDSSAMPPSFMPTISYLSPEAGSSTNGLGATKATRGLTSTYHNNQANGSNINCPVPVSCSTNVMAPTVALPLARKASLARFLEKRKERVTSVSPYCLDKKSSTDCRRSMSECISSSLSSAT
T3 sequence (Q39255 1-160 partner): T1 sequence (Q39255 1-160 partner)

[4] = target: T4, AtCOI1-flag/AtJAZ9-MBP with ASK1 (Arabidopsis thaliana, UniProt O04197+Q8W4J8)
T4 sequence (O04197 1-592): T1 sequence (O04197 1-592)
T4 sequence (Q8W4J8 1-267): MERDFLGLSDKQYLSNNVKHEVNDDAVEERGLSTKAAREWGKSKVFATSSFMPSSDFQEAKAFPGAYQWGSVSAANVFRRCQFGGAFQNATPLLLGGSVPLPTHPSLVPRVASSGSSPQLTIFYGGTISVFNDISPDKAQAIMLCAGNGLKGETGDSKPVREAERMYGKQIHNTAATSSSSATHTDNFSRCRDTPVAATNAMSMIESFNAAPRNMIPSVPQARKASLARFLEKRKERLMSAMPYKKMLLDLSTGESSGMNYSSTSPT
T4 sequence (Q39255 1-160 partner): T1 sequence (Q39255 1-160 partner)

SMILES: CC[C@H]1C=C(C(=O)N[C@@]2(C(=O)O)C[C@@H]2CC)[C@H]2CCC(=O)[C@H]2C1 [COR]
- pull-down of COI1-flag on MBP-JAZ, immunoblot [1]: COR promotes the interaction between the purified COI1 and several recombinant JAZ-MBP proteins
- pull-down of COI1-flag on MBP-JAZ, immunoblot [2]: COR promotes the interaction between the purified COI1 and several recombinant JAZ-MBP proteins
- pull-down of COI1-flag on MBP-JAZ, immunoblot [3]: COR promotes the interaction between the purified COI1 and several recombinant JAZ-MBP proteins
- pull-down of COI1-flag on MBP-JAZ, immunoblot [4]: COR promotes the interaction between the purified COI1 and several recombinant JAZ-MBP proteins
